Laboratory results as given in US8026257B2 (Bristol-Myers Squibb Company, priority 2007, dated 2011).

How the values were obtained:
NK-1 = molecular target: T1, NK-1 (Homo sapiens, UniProt P25103); assay: NK1 radioligand binding assay ([125I]Substance P, U373 membranes); details: U373 cell membranes, 200 pM [125I]Substance P, 1 hour at room temperature
T1 construct: 30 ul/well of a 2×U373 membrane preparation
Method: (§1) NK-1 Binding assay. Crude membrane suspensions were prepared for the NK1 and SERT radioligand binding assays from U373 cells or recombinant HEK-293 cells expressing hSERT, respectively. Cells were harvested from T-175 flasks as follows. The medium is removed from the flasks and the cells rinsed with HBSS without Ca and without Mg. The cells are then incubated for 5-10 minutes in 10 mM Tris-Cl, pH 7.5, 5 mM EDTA before the cells are lifted with a combination of pipetting and scraping, as needed. To prepare membranes, the cell suspension is collected into centrifuge bottles and homogenized for 30 seconds with a Polytron homogenizer. The suspension is centrifuged for 30 min@32,000×g, 4° C., then the supernatant is decanted and the pellet resuspended and homogenized in 50 mM Tris-Cl, pH 7.5, 1 mM EDTA for 10 seconds. The suspension is then centrifuged again for 30 min@32,000×g, 4° C. The supernatant is decanted and the pellet resuspended in 50 mM Tris-Cl, pH 7.5, 1 mM EDTA and briefly homogenized. A Bradford assay (Bio-rad) is performed and the membrane preparation diluted to 2 mg/ml with 50 mM Tris-Cl, pH 7.5, 1 mM EDTA. Aliquots are prepared, and then frozen and stored at −80° C.
NK1 radioligand binding assay. Compounds are dissolved in 100% DMSO at a concentration 100× the desired highest assay concentration, serially diluted 1:3 in 100% DMSO, and 0.6 ul/well of each solution is dispensed to a Nunc polypropylene, round bottom, 384 well plate. 100% inhibition is defined with 0.6 ul/well of 1 mM L-733,060 (Sigma L-137) dissolved in DMSO. 30 ul/well of a 2×U373 membrane preparation (267 ug/ml in 100 mM Tris-Cl, pH 7.5, 6 mM MgCl2, 0.2% (v/v) Sigma mammalian protease inhibitor cocktail (Sigma P-8340), and 4 ug/ml chymostatin, Sigma C-7268) and 30 ul/well of a 2× radioligand solution (400 pM [^125I]Substance P (Perkin ElmerNEX-190) in 1% (w/v) BSA (Sigma A-2153), 0.1 mg/ml bacitracin, Sigma B-0125) are added to the well and the reaction incubated for 1 hour at room temperature. The contents of the assay plate are then transferred to a Millipore MultiscreenHTS GF/B filter plate which has been pretreated with 0.5% PEI for at least one hour. The plate is vacuum filtered and washed with 7 washes of 100 ul/well of 20 mM Tris-Cl, pH 7.5, 0.5% (w/v) BSA chilled to 4° C. The filtration and washing is completed in less than 90 s. The plates are air-dried overnight, 12 ul/well of MicroScint scintillation fluid added, and the plates counted in a Trilux.
(§2) Data analysis. The raw data are normalized to percent inhibition using control wells defining 0% (DMSO only) and 100% (selective inhibitor) inhibition which are run on each plate. Each plate is run in triplicate, and the concentration response curve thus generated is fit using the four-parameter dose response equation, Y=Bottom+(Top-Bottom)/(1+10^((LogIC50−X)*HillSlope)) in order to determine the IC50 value for each compound. The radioligand concentration chosen for each assay corresponds to the Kd concentration determined through saturation binding analysis for each assay.

hSERT = hSERT (Homo sapiens, UniProt P31645); assay: SERT radioligand binding assay ([125I]RTI-55, HEK-hSERT membranes); details: HEK-293 hSERT membranes, 260 pM [125I]RTI-55, 1 hour at room temperature; read-out: SERT IC50
Method: as §1
SERT radioligand binding assay. Compounds are dissolved in 100% DMSO at a concentration 100× the desired highest assay concentration, serially diluted 1:3 in 100% DMSO, and 0.4 ul/well of each solution is dispensed to a Nunc polypropylene, round bottom, 384 well plate. 100% inhibition is defined with 0.4 ul/well of 1 mM fluoxetine (Sigma F-132) dissolved in DMSO. 20 ul/well of a 2× HEK-hSERT membrane preparation (15 ug/ml in 50 mM Tris-Cl, pH 7.5, 120 mM NaCl, 5mM KCl) and 20 ul/well of a 2× radioligand solution (520 pM [^125I]RTI-55 (Perkin-Elmer NEX-272) in 50 mM Tris-Cl, pH 7.5, 120 mM NaCl, 5mM KCl) are added to each well and the reaction incubated for 1 hour at room temperature. The contents of the assay plate are then transferred to a Millipore MultiscreenHTs GF/B filter plate which has been pretreated with 0.5% PEI for at least one hour. The plate is vacuum filtered and washed with 7 washes of 100 ul/well of 50 mM Tris-Cl, pH 7.5, 120 mM NaCl, 5 mM KCl chilled to 4° C. The filtration and washing is completed in less than 90 s. The plates are air-dried overnight, 12 ul/well of MicroScint scintillation fluid added, and the plates counted in a Trilux.
as §2

T1 sequence (P25103 whole entry): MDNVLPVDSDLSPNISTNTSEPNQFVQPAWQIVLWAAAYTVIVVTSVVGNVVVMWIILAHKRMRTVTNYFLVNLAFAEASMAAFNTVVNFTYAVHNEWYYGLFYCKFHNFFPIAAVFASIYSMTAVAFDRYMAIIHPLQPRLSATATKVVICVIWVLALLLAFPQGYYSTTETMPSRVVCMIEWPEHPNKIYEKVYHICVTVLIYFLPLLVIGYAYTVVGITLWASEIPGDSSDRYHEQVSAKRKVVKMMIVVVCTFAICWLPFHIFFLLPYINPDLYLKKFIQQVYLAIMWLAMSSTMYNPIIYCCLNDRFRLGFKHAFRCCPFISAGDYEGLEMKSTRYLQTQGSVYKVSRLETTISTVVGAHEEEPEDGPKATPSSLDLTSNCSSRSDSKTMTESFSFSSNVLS
Chain of hSERT (P31645 whole entry): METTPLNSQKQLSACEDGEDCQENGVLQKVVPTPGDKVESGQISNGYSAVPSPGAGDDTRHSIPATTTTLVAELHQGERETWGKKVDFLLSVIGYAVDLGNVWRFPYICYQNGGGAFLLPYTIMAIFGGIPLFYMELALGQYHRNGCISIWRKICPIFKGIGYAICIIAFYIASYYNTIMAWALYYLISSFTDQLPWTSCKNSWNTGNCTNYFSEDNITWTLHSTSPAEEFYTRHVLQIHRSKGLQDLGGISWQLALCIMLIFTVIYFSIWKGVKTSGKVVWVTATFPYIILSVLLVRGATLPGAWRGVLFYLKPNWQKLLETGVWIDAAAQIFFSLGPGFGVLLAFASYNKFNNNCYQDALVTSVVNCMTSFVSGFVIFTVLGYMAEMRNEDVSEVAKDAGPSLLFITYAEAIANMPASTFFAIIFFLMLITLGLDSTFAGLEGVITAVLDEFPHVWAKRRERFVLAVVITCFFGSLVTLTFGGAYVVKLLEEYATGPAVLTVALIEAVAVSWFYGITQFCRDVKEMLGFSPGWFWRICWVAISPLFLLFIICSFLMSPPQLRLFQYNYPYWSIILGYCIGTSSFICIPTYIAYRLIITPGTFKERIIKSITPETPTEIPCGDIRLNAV

| Structure (SMILES) | IC50 (NK-1) | IC50 (hSERT) |
| --- | --- | --- |
| CC(OCC1(c2ccccc2)CCNCC1)c1cc(C(F)(F)F)cc2cn[nH]c12 (racemic) [Example 20, (±)-7-(1-((4-Phenylpiperidin-4-yl)methoxy)ethyl)-5-(trifluoromethyl)-1H-indazole] | 0.01 to 100 nM | 0.01 to 100 nM |
| CC(OCC1(c2ccccc2)CCN(C)CC1)c1cc(C(F)(F)F)cc2cn[nH]c12 (racemic) [Example 21, (±)-7-(1-((1-Methyl-4-phenylpiperidin-4-yl)methoxy)ethyl)-5-(trifluoromethyl)-1H-indazole] | 0.01 to 100 nM | 0.01 to 100 nM |
| CC(OCC1(c2ccccc2)CCNCC1)c1cc(Cl)cc2cn[nH]c12 (racemic) [Example 38, (±)-5-Chloro-7-(1-((4-phenylpiperidin-4-yl)methoxy)ethyl)-1H-indazole] | 0.01 to 100 nM | 0.01 to 100 nM |
| CC(OCC1(c2ccccc2)CCN(C)CC1)c1cc(Cl)cc2cn[nH]c12 (racemic) [Example 39, (±)-5-Chloro-7-(1-((1-methyl-4-phenylpiperidin-4-yl)methoxy)ethyl)-1H-indazole] | 0.01 to 100 nM | 0.01 to 100 nM |
| CC(OCC1(c2ccccc2)CCNCC1)c1cc(Cl)cc2cnn(C)c12 (racemic) [Example 40, (±)-5-Chloro-1-methyl-7-(1-((4-phenylpiperidin-4-yl)methoxy)ethyl)-1H-indazole] | 0.01 to 100 nM | 0.01 to 100 nM |
| CC(OCC1(c2ccccc2)CCN(C)CC1)c1cc(C(F)(F)F)cc2c(C#N)n[nH]c12 (racemic) [Example 42, (±)-7-(1-((1-methyl-4-phenylpiperidin-4-yl)methoxy)ethyl)-5-(trifluoromethyl)-1H-indazole-3-carbonitrile] | 0.01 to 100 nM | 100 to 300 nM |
| Cc1n[nH]c2c(C(C)OCC3(c4ccccc4)CCNCC3)cc(C(F)(F)F)cc12 (racemic) [Example 43, (±)-3-Methyl-7-(1-((4-phenylpiperidin-4-yl)methoxy)ethyl)-5-(trifluoromethyl)-1H-indazole] | 0.01 to 100 nM | 0.01 to 100 nM |
| Cc1n[nH]c2c(C(C)OCC3(c4ccccc4)CCN(C)CC3)cc(C(F)(F)F)cc12 (racemic) [Example 44, (±)-3-Methyl-7-(1-((1-methyl-4-phenylpiperidin-4-yl)methoxy)ethyl)-5-(trifluoromethyl)-1H-indazole] | 0.01 to 100 nM | 0.01 to 100 nM |
| CC(OCC1(c2ccc(F)cc2)CCN(C)CC1)c1cc(Br)cc2cn[nH]c12 (racemic) [Example 46, (±)-5-Bromo-7-(1-((4-(4-fluorophenyl)-1-methylpiperidin-4-yl)methoxy)ethyl)-1H-indazole] | 0.01 to 100 nM | 0.01 to 100 nM |
| CC(OCC1(c2ccc(F)cc2)CCN(C)CC1)c1cc(C2CC2)cc2cn[nH]c12 (racemic) [Example 47, (±)-5-Cyclopropyl-7-(1-((4-(4-fluorophenyl)-1-methylpiperidin-4-yl)methoxy)ethyl)-1H-indazole] | 0.01 to 100 nM | 0.01 to 100 nM |
| CC(OCC1(c2ccc(F)cc2)CCN(C)CC1)c1cc(C#N)cc2cn[nH]c12 (racemic) [Example 48, (±)-7-(1-((4-(4-Fluorophenyl)-1-methylpiperidin-4-yl)methoxy)ethyl)-1H-indazole-5-carbonitrile] | 0.01 to 100 nM | 0.01 to 100 nM |
| Cc1cc(C(C)OCC2(c3ccc(F)cc3)CCN(C)CC2)c2[nH]ncc2c1 (racemic) [Example 49, (±)-7-(1-((4-(4-Fluorophenyl)-1-methylpiperidin-4-yl)methoxy)ethyl)-5-methyl-1H-indazole] | 0.01 to 100 nM | 0.01 to 100 nM |
| CC(OCC1(c2ccc(F)cc2)CCN(C)CC1)c1cc(N2CCOCC2)cc2cn[nH]c12 (racemic) [Example 50, (±)-4-7-(1-((4-(4-Fluorophenyl)-1-methylpiperidin-4-yl)methoxy)ethyl)-1H-indazole-5-yl)morpholino] | 100 to 300 nM | 0.01 to 100 nM |
| COc1cc(C(C)OCC2(c3ccc(F)cc3)CCN(C)CC2)c2[nH]ncc2c1 (racemic) [Example 52, (±)-7-(1-((4-(4-Fluorophenyl)-1-methylpiperidin-4-yl)methoxy)ethyl)-5-methoxy-1H-indazole] | 0.01 to 100 nM | 0.01 to 100 nM |
| CC(OCC1(c2ccc(F)cc2)CCN(C)CC1)c1cc(F)cc2cn[nH]c12 (racemic) [Example 53, (±)-5-Fluoro-7-(1-((4-(4-fluorophenyl)-1-methylpiperidin-4-yl)methoxy)ethyl)-1H-indazole] | 0.01 to 100 nM | 0.01 to 100 nM |
| Cc1n[nH]c2c(C(C)OCC3(c4ccc(F)cc4)CCN(C)CC3)cc(Cl)cc12 (racemic) [Example 55, (±)-5-Chloro-7-(1-((4-(4-fluorophenyl)-1-methylpiperidin-4-yl)methoxy)ethyl)-3-methyl-1H-indazole] | 0.01 to 100 nM | 0.01 to 100 nM |
| CC(OCC1(c2ccc(F)cc2)CCN(C)CC1)c1cc(Cl)cc2c(C3CC3)n[nH]c12 (racemic) [Example 56, (±)-5-Chloro-3-cyclopropyl-7-(1-((4-(4-fluorophenyl)-1-methylpiperidin-4-yl)methoxy)ethyl)-1H-indazole] | 0.01 to 100 nM | 0.01 to 100 nM |
| CC(OCC1(c2ccc(F)cc2)CCN(C)CC1)c1cc(Cl)cc2c(Br)n[nH]c12 (racemic) [Example 57, (±)-3-Bromo-5-chloro-7-(1-((4-(4-fluorophenyl)-1-methylpiperidin-4-yl)methoxy)ethyl)-1H-indazole] | 0.01 to 100 nM | 0.01 to 100 nM |
| CC(OCC1(c2ccc(F)cc2)CCN(C)CC1)c1cc(Cl)cc2cn(C3CC3)nc12 (racemic) [Example 58, (±)-5-Chloro-2-cyclopropyl-7-(1-((4-(4-fluorophenyl)-1-methylpiperidin-4-yl)methoxy)ethyl)-2H-indazole] | 0.01 to 100 nM | 0.01 to 100 nM |
| CC(OCC1(c2ccc(F)cc2)CCN(C)CC1)c1cc(Cl)cc2c(Cl)n[nH]c12 (racemic) [Example 59, (±)-3,5-Dichloro-7-(1-((4-(4-fluorophenyl)-1-methylpiperidin-4-yl)methoxy)ethyl)-1H-indazole] | 0.01 to 100 nM | 0.01 to 100 nM |
| Cc1cc(C(C)OCC2(c3ccc(F)cc3)CCN(C)CC2)c2c(cnn2CC(F)F)c1 (racemic) [Example 60, (±)-1-(2,2-Difluoroethyl)-7-(1-((4-(4-fluorophenyl)-1-methylpiperidin-4-yl)methoxy)ethyl)-5-methyl-1H-indazole] | 0.01 to 100 nM | 0.01 to 100 nM |
| C[C@@H](OCC1(c2ccc(F)cc2)CCN(C)CC1)c1cc(Cl)cc2c(Cl)n(CC(F)(F)F)nc12 [Example 117, (R)-3,5-dichloro-7-(1-((4-(4-fluorophenyl-1-methyl)piperidine-4-yl)methoxy)ethyl)-2-(2,2,2-trifluoroethyl)-1H-indazole] | 0.01 to 100 nM |  |
